Experimental data: patent US10662225B2, “Backbone cyclized inhibitory peptides of myeloid differentiation factor 88 (MyD88)” (Yissum Research Development Company of the Hebrew …, priority 2016, dated 2020)
Numbered stars: 1 amine (or outer) side, 2 acyl side, 3 side chain; on linkers, the order of the positions; unused ones are H or OH. Bridge positions count the residues as written; N and C are the ends. Square brackets hold non-standard residues; d marks the D form. Ends that are not written are not given here. Peptide text beside a SMILES is read from it. * marks the point of attachment. Myristoyl = CCCCCCCCCCCCCC(=O)*; CO = O=C([*:1])[*:2]; Nlys = NCCCCNCC(=O)O

Tests used:
[1] = target: MyD88 (Homo sapiens, UniProt Q99836); test: Comparison of linear 7-mer peptide with and without N-terminal myristoyl group (assay not specified); details: versus linear MyD88 inhibitor 7-mer peptide
From the text: The importance of additional moieties to enhance cell penetration is further evaluated. […] Therefore, backbone cyclic peptides with addition of a myristoyl group or other moieties designed to enhance cell penetration are also synthesized and tested for binding, inhibition, stability and permeability.

[2] = tested on: OCI-LY3 (MyD88 L265P) cells; test: Proliferation of lymphoma cells (Promega CellTiter viability assay); type: cell-based, human; details: 48 h; compared with OCI-LY19 (MyD88 WT)
Procedure: FIGS. 18A and 18B. 4×4MyDI and Myr-4×4MyDI block proliferation of Ly3 lymphoma cells that carry the L265P oncogenic mutation in MyD88. Cell lines OCI-LY3 (MyD88^L265P) and OCI-LY19 (MyD88^WT) were grown in RPMI supplemented with 10% FCS. Cells were counted and plated at identical concentrations in triplicate wells of 96 well plates and decreasing concentrations of 4×4MyDI […], or Myr-4×4MyDI (19B), was added to the wells. After 48 h cell viability was tested using the Promega CellTiter viability assay according to the manufacturer's instructions. Percent inhibition was calculated as [(1-OD of well with inhibitor/OD of well without inhibitor)*1001. Negative values in A represent enhanced growth in the presence of the inhibitor.
Genomic DNA was prepared from the human lymphoma cell lines OCI-LY3 (MyD88^L265P) and OCI-LY19 (MyD88^WT) to confirm the presence of the activating L265P mutation in the OCI-Ly3 cells (and the WT sequence in the OCI-Ly19 cells). The MyD88 region was amplified using the forward and reverse primers GGGATATGCTGAACTAAGTTGCCAC (SEQ ID NO: 7) and GACGTGTCTGTGAAGTTGGCATCTC (SEQ ID NO: 8), respectively, as described in Xu, L. et al Blood (2013) 121(11): 2051-2058. The PCR product was sequenced to confirm the mutation.
The cell lines were incubated alone or with increasing concentrations of the 4×4MyDI. […]

[3] = target: T1, MyD88 dimerization (Homo sapiens, UniProt Q99836); test: Co-immunoprecipitation of Flag-MyD88 with HA-MyD88 in HEK293 cells; type: cell-based; details: HEK293, IL-1 stimulation; 4×4MyDI at 20, 2, 0.2 μM; Myr-4×4MyDI at 0.2 or 2000 nM
T1 construct: constructs encoding HA-tagged full length MyD88 and Flag-tagged full length MyD88; expressed in transfected cells; host or cells: HEK293
Procedure: FIG. 10. 4×4MyDI blocks MyD88 dimerization. HEK293 cells were transfected with two plasmids, one encoding HA-MyD88 and the other encoding FLAG-MyD88 and after 48 hours the cells were either untreated (cont) or treated with 20 μM of the linear MyDI peptide, the scrambled version of the linear MyDI peptide (SEQ ID NO: 5,), or the 4×4MyDI at 20, 2, or 0.2 μM. After 3 h of treatment, cells were stimulated with recombinant human IL-1 (20 ng/ml) for 30 min and then lysed. Whole cell lysates (WCL) were immunoprecipitated with anti-HA beads (Thermo-Scientific) for 30 min and proteins were eluted with glycine Ph 2.0, neutralized, and loaded on an acrylamide gel for analysis. Proteins were transferred to nitrocellulose and the amount of Flag-MyD88 that co-precipitated with HA-MyD88 was detected by immunoblotting (IB) with anti-Flag antibody.
FIGS. 14A and 14B. […] Proteins were transferred to nitrocellulose and the amount of FLAG-MyD88 that co-precipitated with HA-MyD88 was detected by immunoblotting (IB) with anti-FLAG antibody. […] Percent inhibition of co-immunoprecipitation was calculated by comparing densitometry of bands in the treated lanes to control. […]
TLR and IL-1 receptor signaling proceeds through a multimeric protein signaling complex (the “Myddosome”) that is initiated by MyD88 homodimerization. […] Immunoprecipitated protein was eluted and analyzed by immunoblot using an antibody to Flag. […]

[4] = tested on: NFkB activation; test: NFkB-luciferase reporter in RAW 264.7 macrophages stimulated with LPS; type: cell-based, mouse; details: RAW 264.7 NFkB-luc, 4 hours
Procedure: FIG. 13. 4×4MyDI and Myr4×4MyDI block NFkB induction in response to LPS stimulation of RAW 264.7 NFkB-luc cells. RAW 264.7 murine macrophages were transfected with an NFkB-luciferase reporter gene and stimulated with LPS in the absence or presence of increasing concentrations of the inhibitors. After 4 hours cells were lysed and luminescence was recorded using a Tecan plate reader. BG denotes background.
In this assay the mouse macrophage RAW264.7 cell line is transfected with an NFkB-luciferase reporter construct and then cells are stimulated by exposure to bacterial LPS and light emission is measured after addition of luciferase substrate.

Chain of MyD88 (Q99836 whole entry, species assumed): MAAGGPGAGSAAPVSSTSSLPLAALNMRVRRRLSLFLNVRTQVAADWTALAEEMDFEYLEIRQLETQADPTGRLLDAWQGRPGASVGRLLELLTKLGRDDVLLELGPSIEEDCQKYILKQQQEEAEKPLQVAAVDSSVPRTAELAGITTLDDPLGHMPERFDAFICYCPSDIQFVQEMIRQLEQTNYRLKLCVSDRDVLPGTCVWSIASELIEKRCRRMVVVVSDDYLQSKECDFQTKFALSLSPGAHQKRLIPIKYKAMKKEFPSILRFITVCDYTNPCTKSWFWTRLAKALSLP
T1 sequence (Q99836 whole entry): as the sequence (Q99836 whole entry, species assumed) above

peptide stability on addition of myristoyl group [1] | MyD88 dimerization (Flag-MyD88 co-precipitated with HA-MyD88) [3] | block of NFkB activation [4] | Molecule | proliferation of OCI-Ly3 cells [2]
without affecting peptide stability | – | – | CCCCCCCCCCCCCC(=O)N[C@@H](CCCNC(=N)N)C(=O)N[C@@H](CC(=O)O)C(=O)N[C@H](C(=O)N[C@@H](CC(C)C)C(=O)N1CCC[C@H]1C(=O)NCC(=O)N[C@H](C(=O)O)[C@@H](C)O)C(C)C (Myristoyl-RDVLPGT-OH; N-terminus and C-terminus assumed) | –
– | at least as active as 4×4MyDI | greater activity than the 4×4MyDI | Myr-4×4MyDI: 4×4MyDI backbone cyclic peptide with a myristoyl group (formula V) (Myristoyl-[Nlys]RDVL[Nlys]GT; bridge 1-6 via CO) | specifically blocked proliferation
